Source: ChEMBL document CHEMBL3108715, “Pan-histone demethylase inhibitors simultaneously targeting Jumonji C and lysine-specific demethylases display high anticancer activities” (J Med Chem, 2014)
Active and inactive are the calls of the source. The calls are words filed in the database; no cut-off is given here.

How the values were obtained:
[1] = molecular target: T1, Lysine-specific demethylase 3A (Homo sapiens, UniProt Q9Y4C1)
T1 sequence (Q9Y4C1 whole entry): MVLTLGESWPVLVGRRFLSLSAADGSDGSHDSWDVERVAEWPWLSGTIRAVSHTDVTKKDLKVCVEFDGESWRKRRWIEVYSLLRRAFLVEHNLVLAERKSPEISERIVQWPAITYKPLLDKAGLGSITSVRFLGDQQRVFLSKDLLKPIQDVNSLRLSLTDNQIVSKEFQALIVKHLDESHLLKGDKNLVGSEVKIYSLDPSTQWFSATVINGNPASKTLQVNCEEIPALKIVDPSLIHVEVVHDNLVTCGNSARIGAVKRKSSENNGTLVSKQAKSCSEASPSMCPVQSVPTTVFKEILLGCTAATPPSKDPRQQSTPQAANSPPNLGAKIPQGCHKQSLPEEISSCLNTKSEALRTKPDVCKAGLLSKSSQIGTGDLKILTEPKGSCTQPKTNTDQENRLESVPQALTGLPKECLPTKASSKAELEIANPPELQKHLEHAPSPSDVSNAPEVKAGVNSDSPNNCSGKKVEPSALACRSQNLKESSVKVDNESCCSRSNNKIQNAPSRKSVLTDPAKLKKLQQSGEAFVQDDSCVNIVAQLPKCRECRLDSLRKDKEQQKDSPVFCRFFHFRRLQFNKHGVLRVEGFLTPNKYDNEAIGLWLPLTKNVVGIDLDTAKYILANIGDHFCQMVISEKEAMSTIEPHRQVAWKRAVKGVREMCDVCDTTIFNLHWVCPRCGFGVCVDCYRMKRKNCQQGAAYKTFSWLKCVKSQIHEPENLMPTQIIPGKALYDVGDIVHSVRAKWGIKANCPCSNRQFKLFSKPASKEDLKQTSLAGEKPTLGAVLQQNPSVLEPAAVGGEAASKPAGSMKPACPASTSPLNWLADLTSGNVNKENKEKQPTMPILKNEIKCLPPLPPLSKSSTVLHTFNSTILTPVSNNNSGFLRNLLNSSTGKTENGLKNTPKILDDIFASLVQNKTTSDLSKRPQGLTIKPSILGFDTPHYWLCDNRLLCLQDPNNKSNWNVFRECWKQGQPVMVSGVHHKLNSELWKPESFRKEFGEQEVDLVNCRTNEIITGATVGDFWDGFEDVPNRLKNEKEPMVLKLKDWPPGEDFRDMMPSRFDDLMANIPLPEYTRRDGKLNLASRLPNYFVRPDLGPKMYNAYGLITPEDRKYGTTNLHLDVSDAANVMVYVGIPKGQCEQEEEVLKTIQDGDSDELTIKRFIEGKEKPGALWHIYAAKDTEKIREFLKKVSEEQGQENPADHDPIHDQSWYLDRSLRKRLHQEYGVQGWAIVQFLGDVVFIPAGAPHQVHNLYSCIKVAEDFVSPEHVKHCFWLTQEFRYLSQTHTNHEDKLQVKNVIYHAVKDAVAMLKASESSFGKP
Description: Inhibition of recombinant JMJD1A (unknown origin) incubated for 15 mins prior to substrate addition by AlphaScreen method

[2] = molecular target: Lysine-specific demethylase 6B (Homo sapiens, UniProt O15054)
Description: Inhibition of recombinant JMJD3 (unknown origin) incubated for 15 mins prior to substrate addition by AlphaScreen method

[3] = molecular target: T2, Amine oxidase [flavin-containing] B (Homo sapiens, UniProt P27338)
T2 sequence (P27338 whole entry): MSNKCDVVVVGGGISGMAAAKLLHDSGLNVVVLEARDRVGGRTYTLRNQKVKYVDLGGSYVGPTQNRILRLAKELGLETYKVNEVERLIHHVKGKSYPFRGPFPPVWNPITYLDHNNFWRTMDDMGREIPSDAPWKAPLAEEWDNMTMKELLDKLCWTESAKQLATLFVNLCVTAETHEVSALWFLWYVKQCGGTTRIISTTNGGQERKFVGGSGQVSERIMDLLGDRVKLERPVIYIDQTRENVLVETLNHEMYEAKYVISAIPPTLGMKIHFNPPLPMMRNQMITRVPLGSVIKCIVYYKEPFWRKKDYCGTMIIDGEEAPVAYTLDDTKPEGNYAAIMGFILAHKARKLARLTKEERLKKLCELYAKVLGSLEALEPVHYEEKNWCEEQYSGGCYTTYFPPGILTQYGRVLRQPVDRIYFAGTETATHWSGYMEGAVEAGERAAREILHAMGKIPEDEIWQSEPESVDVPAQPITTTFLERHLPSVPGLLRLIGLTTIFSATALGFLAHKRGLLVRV
Description: Inhibition of human recombinant MAO-B expressed in Pichia pastoris using benzylamine as substrate after 5 mins

HCT-116 [4] = experiment: Antimigratory activity against human HCT116 cells at 50 uM after 72 hrs; type: functional, cell-based
LNCaP [5] = experiment: Cell cycle arrest in human LNCAP cells assessed as accumulation at pre-G1 phase at 50 uM after 30 hrs by propidium iodide staining-based FACS analysis; type: functional
HCT-116 [6] = experiment: Inhibition of LSD1/JmjC in human HCT116 cells assessed as increase in H3K9me3 level at 50 uM by Western blotting analysis; type: cell-based
LNCaP [7] = experiment: Antimigratory activity against human LNCAP cells at 50 uM after 72 hrs; type: functional, cell-based
HCT-116 [8] = experiment: Cell cycle arrest in human HCT116 cells assessed as accumulation at pre-G1 phase at 50 uM after 30 hrs by propidium iodide staining-based FACS analysis; type: functional
HCT-116 [9] = experiment: Induction of apoptosis in human HCT116 cells at 10 to 100 uM after 48 hrs by propidium iodide staining-based FACS analysis; type: functional, cell-based
HCT-116 [10] = experiment: Cytotoxicity against human HCT116 cells at 50 uM after 6 hrs; type: functional, cell-based
[11] = molecular target: T3, Amine oxidase [flavin-containing] A (Homo sapiens, UniProt P21397)
T3 sequence (P21397 whole entry): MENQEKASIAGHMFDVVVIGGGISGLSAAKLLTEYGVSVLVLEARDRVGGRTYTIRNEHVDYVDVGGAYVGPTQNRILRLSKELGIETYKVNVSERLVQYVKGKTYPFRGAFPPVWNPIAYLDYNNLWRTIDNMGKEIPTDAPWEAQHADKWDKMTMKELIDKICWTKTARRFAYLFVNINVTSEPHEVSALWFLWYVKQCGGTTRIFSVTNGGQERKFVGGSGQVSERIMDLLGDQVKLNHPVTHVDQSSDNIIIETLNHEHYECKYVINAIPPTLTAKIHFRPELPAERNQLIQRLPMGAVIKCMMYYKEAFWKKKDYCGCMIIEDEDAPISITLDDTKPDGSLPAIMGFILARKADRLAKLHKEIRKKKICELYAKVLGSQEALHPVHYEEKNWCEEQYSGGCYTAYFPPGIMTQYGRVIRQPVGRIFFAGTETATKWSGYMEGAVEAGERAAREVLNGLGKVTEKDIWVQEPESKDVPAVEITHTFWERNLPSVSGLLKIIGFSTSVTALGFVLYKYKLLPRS
Description: Inhibition of human recombinant MAO-A expressed in Pichia pastoris using kynuramine as substrate after 5 mins

[12] = Induction of apoptosis in human MePR cells assessed as accumulation at pre-G1 phase at 50 uM after 24 hrs by propidium iodide staining-based FACS analysis (reference value: 8.4%); type: cell-based
LNCaP [13] = experiment: Cell cycle arrest in human LNCAP cells assessed as accumulation at G1 phase at 50 uM after 30 hrs by propidium iodide staining-based FACS analysis; type: functional

Sequence of Lysine-specific demethylase 6B (O15054 whole entry): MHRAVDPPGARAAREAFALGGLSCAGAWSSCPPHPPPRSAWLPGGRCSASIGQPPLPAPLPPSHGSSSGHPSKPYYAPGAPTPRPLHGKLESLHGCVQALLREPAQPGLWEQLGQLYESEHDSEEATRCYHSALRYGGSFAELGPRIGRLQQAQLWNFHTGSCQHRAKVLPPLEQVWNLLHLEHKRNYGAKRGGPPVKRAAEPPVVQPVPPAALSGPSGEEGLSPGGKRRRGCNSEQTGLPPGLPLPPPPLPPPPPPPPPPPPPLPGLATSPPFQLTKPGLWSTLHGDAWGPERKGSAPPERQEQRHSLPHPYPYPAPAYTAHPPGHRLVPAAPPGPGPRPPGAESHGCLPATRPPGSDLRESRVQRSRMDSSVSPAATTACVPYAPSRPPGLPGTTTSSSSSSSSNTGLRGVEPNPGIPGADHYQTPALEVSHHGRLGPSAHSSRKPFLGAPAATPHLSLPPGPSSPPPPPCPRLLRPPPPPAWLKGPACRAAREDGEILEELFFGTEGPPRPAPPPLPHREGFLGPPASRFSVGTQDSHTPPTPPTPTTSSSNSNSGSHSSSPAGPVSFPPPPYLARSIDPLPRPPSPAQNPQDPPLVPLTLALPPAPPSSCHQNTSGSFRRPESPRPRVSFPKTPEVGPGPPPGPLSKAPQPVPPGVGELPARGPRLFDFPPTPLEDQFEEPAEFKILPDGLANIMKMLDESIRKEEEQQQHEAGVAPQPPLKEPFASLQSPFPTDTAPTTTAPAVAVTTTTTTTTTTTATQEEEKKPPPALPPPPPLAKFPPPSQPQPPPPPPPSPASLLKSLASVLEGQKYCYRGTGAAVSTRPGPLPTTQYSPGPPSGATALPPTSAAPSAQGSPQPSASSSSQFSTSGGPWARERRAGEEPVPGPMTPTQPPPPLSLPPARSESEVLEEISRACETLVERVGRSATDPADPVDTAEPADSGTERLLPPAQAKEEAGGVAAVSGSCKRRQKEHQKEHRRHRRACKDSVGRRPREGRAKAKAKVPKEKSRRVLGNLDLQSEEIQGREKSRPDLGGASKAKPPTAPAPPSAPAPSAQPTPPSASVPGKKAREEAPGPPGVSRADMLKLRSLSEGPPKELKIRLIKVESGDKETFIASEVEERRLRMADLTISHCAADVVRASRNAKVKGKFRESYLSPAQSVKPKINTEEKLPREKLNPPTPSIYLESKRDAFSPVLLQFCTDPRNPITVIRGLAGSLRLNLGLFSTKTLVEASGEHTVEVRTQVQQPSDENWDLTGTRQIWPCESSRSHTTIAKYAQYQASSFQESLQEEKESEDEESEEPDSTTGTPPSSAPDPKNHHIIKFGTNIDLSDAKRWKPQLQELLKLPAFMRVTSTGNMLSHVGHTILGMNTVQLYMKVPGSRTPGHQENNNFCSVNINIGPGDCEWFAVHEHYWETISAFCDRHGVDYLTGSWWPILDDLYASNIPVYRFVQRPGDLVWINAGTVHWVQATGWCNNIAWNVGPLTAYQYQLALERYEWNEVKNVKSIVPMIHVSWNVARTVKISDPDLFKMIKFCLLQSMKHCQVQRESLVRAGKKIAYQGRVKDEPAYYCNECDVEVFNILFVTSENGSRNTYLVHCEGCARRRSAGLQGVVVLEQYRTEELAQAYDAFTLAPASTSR

Work on `COC(=O)c1ccnc(-c2cc(C(=O)O)ccn2)c1` yielded an IC50 [1] of 1.1 µM and an IC50 [2] of 11.2 µM.

For `Cl.N[C@@H]1C[C@H]1c1ccc(NC(=O)c2ccc(O)c3ncccc23)cc1` (relative stereo), the IC50 [3] was 81 µM, the Activity (HCT-116 [4]) was “inactive” and the IC50 [1] was 31 µM. The Activity (LNCaP [5]) was “Active”, the inhibition (HCT-116 [6]) was “Active” and the Activity (LNCaP [7]) was “inactive”. The Activity (HCT-116 [8]) was “Active”, the IC50 [2] was 27 µM and the Activity (HCT-116 [9]) was “Active”. The Activity (HCT-116 [10]) was “Active”, the IC50 [11] was 8.9 µM and the Activity [12] was 4.2%. For the same compound, the Activity (LNCaP [13]) was “>=90%”.

With `N[C@H]1C[C@@H]1c1ccc(NC(=O)CCCNC(=O)c2ccc(O)c3ncccc23)cc1` (relative stereo) the IC50 [1] was 12 µM and the IC50 [2] was 18 µM.

`N[C@H]1C[C@@H]1c1ccc(NC(=O)CCCCNC(=O)c2ccc(O)c3ncccc23)cc1` (relative stereo) gave an IC50 [1] of 9.7 µM and an IC50 [2] of 14 µM.

With `Cl.N[C@H]1C[C@@H]1c1ccc(NC(=O)CCCCCNC(=O)c2ccc(O)c3ncccc23)cc1` (relative stereo) the IC50 [1] was 9.1 µM, the Activity (LNCaP [5]) was “Active” and the IC50 [2] was 16 µM. The Activity (LNCaP [13]) was “>=90%”.

`N[C@@H]1C[C@H]1c1ccc(NC(=O)c2ccnc(-c3cc(C(=O)O)ccn3)c2)cc1` (relative stereo) showed an IC50 [3] of 47 µM, an IC50 [1] of 0.14 µM and an IC50 [2] of 2.7 µM. It also gave an IC50 [11] of 35.4 µM.

In the case of `COC(=O)c1ccnc(-c2cc(C(=O)Nc3ccc([C@@H]4C[C@H]4N)cc3)ccn2)c1.Cl` (relative stereo), the IC50 [3] is reported as 43.3 µM, the Activity (HCT-116 [4]) is reported as “Active” and the IC50 [1] is reported as 37 µM. For the same compound, the Activity (LNCaP [5]) was “Active”, the inhibition (HCT-116 [6]) was “Active” and the Activity (LNCaP [7]) was “inactive”. For the same compound, the Activity (HCT-116 [8]) was “Active”, the IC50 [2] was 76 µM and the Activity (HCT-116 [9]) was “Active”. For the same compound, the Activity (HCT-116 [10]) was “Active”, the IC50 [11] was under 1 µM and the Activity [12] was 12.8%. The Activity (LNCaP [13]) was “>=90%”.
